Test results taken from ChEMBL document CHEMBL5113446, “Design, synthesis and biological evaluation of novel aminopropylcarboxamide derivatives as sigma ligands” (Bioorg Med Chem Lett, 2022).

What was measured:
[1] = target: Sigma non-opioid intracellular receptor 1 (Homo sapiens, UniProt Q99720); assay: Binding affinity to sigma 1 receptor (unknown origin) assessed as inhibition constant by radioligand binding assay
[2] = target: Sigma intracellular receptor 2 (Homo sapiens, UniProt Q5BJF2); assay: Binding affinity to sigma 2 receptor (unknown origin) assessed as inhibition constant by radioligand binding assay
Chain of Sigma intracellular receptor 2 (Q5BJF2 whole entry): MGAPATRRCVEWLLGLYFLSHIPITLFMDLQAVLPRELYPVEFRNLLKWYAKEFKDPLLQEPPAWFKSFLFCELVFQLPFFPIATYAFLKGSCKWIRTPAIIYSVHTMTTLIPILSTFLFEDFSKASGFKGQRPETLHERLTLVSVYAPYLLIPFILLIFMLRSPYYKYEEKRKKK

[3] = organism: Homo sapiens; assay: Selectivity index, ratio of Ki for sigma 1 receptor (unknown origin) to Ki for sigma 2 receptor (unknown origin)
[4] = target: Mu-type opioid receptor (Homo sapiens, UniProt P35372); assay: Binding affinity to MOR (unknown origin) assessed as inhibition constant by radioligand binding assay
Chain of Mu-type opioid receptor (P35372 whole entry): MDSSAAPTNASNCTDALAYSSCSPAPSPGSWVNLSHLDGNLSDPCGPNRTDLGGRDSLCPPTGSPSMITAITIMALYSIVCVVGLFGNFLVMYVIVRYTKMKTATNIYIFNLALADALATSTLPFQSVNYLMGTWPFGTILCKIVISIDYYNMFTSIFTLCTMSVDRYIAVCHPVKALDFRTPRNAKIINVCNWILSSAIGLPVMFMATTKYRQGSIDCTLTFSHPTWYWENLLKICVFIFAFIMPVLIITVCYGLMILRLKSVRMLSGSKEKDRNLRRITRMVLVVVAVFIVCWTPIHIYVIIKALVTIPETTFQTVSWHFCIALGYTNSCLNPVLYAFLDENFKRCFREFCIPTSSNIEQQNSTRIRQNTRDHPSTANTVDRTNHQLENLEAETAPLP

[5] = target: Delta-type opioid receptor (Homo sapiens, UniProt P41143); assay: Binding affinity to DOR (unknown origin) assessed as inhibition constant by radioligand binding assay
Chain of Delta-type opioid receptor (P41143 whole entry): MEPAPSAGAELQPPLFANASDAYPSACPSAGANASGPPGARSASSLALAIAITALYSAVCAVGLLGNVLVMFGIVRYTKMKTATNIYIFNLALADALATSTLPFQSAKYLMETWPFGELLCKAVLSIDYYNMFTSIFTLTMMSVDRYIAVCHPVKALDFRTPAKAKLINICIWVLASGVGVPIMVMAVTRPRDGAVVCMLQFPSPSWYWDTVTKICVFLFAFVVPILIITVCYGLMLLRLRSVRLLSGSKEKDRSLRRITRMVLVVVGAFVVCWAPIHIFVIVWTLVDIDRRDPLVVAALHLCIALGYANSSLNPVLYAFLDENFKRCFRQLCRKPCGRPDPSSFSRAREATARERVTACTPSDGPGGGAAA

[6] = target: Kappa-type opioid receptor (Homo sapiens, UniProt P41145); assay: Binding affinity to KOR (unknown origin) assessed as inhibition constant by radioligand binding assay
Chain of Kappa-type opioid receptor (P41145 whole entry): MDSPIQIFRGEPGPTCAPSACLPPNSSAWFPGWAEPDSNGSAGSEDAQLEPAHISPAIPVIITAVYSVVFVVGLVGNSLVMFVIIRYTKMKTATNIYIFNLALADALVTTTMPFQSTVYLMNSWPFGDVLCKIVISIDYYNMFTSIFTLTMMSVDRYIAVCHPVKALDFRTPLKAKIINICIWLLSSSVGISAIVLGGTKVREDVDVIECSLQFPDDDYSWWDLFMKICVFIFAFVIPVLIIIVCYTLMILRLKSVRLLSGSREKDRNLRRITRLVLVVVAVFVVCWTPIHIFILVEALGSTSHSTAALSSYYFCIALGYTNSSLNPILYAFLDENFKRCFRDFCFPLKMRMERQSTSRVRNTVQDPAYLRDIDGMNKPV

[7] = tested on: SK-BR-3; assay: Cytotoxicity against ER/PR-negative HER2-positive human SK-BR-3 cells harbouring […] assessed as inhibition of cell growth incubated for 48 hrs by resazurin dye based assay; assay type: functional; conditions: SK-BR-3, 48 h
[8] = tested on: MCF7; assay: Cytotoxicity against ER/PR-positive HER2-negative human MCF7 cells harbouring […] assessed as inhibition of cell growth incubated for 48 hrs by resazurin dye based assay; assay type: functional; conditions: MCF7, 48 h
[9] = tested on: SK-BR-3; assay: Cytotoxicity against ER/PR-negative HER2-positive human SK-BR-3 cells harbouring […] assessed as reduction in cell viability at 100 to 200 uM incubated for 48 hrs by resazurin dye based assay relative to control; assay type: functional; conditions: dose 100-200 µM
[10] = tested on: MCF7; assay: Cytotoxicity against ER/PR-positive HER2-negative human MCF7 cells harbouring […] assessed as reduction in cell viability at 100 uM incubated for 48 hrs by resazurin dye based assay relative to control; assay type: functional

Chain of Sigma non-opioid intracellular receptor 1 (Q99720 whole entry): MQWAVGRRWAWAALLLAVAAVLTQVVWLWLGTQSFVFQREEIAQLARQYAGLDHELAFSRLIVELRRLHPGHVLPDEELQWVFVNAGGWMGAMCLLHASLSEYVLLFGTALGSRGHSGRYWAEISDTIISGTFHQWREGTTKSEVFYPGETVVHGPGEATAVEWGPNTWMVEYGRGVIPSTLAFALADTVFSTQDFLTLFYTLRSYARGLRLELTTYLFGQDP

| SMILES | Ki [1] [nM] | Ki [2] [nM] | Ratio Ki [3] | Ki [4] [nM] | Ki [5] [µM] | Ki [6] [µM] | IC50 [7] [µM] | IC50 ([8]; read-out: IC50) [µM] | Activity [9] | Activity [10] | IC50 [8] [µM] |
| --- | --- | --- | --- | --- | --- | --- | --- | --- | --- | --- | --- |
| COc1ccc(CN(C)CCCNC(=O)c2ccc3ccccc3n2)cc1OC | 573 | 16 | 35 | 56 | > 10 | > 10 | 88 | 251 | <=60% | <=50% |  |
| O=C(CCCN1CCC(O)(c2ccc(Cl)cc2)CC1)c1ccc(F)cc1 [HALOPERIDOL] |  |  |  |  |  |  | 131 |  | 48% | 79% | 68 |
| Fc1ccc(-n2cc(CCCCN3CCC4(CC3)OCc3ccccc34)c3ccccc32)cc1 [SIRAMESINE] |  |  |  |  |  |  | 14 | 13 | 98% | 96% |  |
| COc1ccc(CN(C)CCCNC(=O)c2ccco2)cc1OC | > 10000 | > 5000 |  | > 10000 | > 10 | 4.17 |  |  |  |  |  |
| COc1ccc(CN(C)CCCNC(=O)c2cc3ccccc3o2)cc1OC | 375 | 46 | 8.1 | 2900 | > 10 | > 10 | 35 | 36 | <=60% | <=60% |  |

Now from value to compound, other results behind:

| Ki [1] [nM] | Ki [2] [nM] | Ratio Ki [3] | Ki [4] [nM] | Ki [5] [µM] | Ki [6] [µM] | SMILES | IC50 [7] [µM] | IC50 ([8]; read-out: IC50) [µM] | Activity [9] | Activity [10] | IC50 [8] [µM] |
| --- | --- | --- | --- | --- | --- | --- | --- | --- | --- | --- | --- |
| 16 | 21 | 0.7 | 2760 | > 10 | 3.58 | CN(CCCNC(=O)c1ccc2ccccc2n1)Cc1ccccc1 | 169 | 1640 | 50% | 30% |  |
| 1440 | 126 | 11 | 1220 | > 10 | > 10 | COc1ccc(CN(C)CCCNC(=O)c2ccc3ccccc3c2)cc1OC |  |  |  |  |  |
| 104 | 106 | 1 | 3430 | > 10 | > 10 | CN(CCCNC(=O)c1ccc2ccccc2c1)Cc1ccccc1 |  |  |  |  |  |
| 12 | 9.9 | 1.2 | 1770 | > 10 | 2.39 | CN(CCCNC(=O)c1cc2ccccc2o1)Cc1ccccc1 | 52 | 86 | 50% | <=50% |  |
| > 10000 | 1070 |  | > 10000 | > 10 | > 10 | CN(CCCNC(=O)c1ccco1)Cc1ccccc1 |  |  |  |  |  |
